Data reported in patent publication US20260103465A1, “GLYCOGEN SYNTHASE KINASE 3 INHIBITORS AND USES THEREOF” (The Broad Institute, Inc., priority 2023, published 2026).
pIC50: −log10 of the molar value. Read-outs that look alike come from different tables or passages of the source.

Tests used:
[1] = target: T1, GSK3a (GST-full length GSK3a) (Homo sapiens, UniProt P49840); assay: GSK3a TR-FRET kinase inhibition assay; format: biochemical
T1 construct: GST-full length GSK3a [SignalChem G08-10G]; purchased SignalChem G08-10G
Method: (§1) TR-FRET assay was performed in a white, 384 well, low volume, flat bottom plate (Grenier). After a 30 minute preincubation in assay buffer with the indicated concentration of compound, the kinase activity was initiated by the addition of the substrates. 1 nM GSK3a (GST-full length GSK3a [SignalChem G08-10G]) or 1 nM GSK3b (GST-full length GSK3b: [SignalChem G08-9G]) were then incubated at ambient temperature for 100 minutes in 10 μl of 50 mM Tris, pH 7.5, 20 mM MgCl2, 0.05 mM DTT, 100 μg/ml BSA and 1% DMSO, with 200 nM biotinylated peptide substrate (biotinylated and S645 phosphorylated glycogen synthase 631-650) and ATP (e.g., at 2 μM, 4 μM, 10 μM, 100 μM, or 1 mM). The kinase activity was quenched with 2 μl of 250 mM EDTA. A 10 μl volume of 40 nM Strepavidin-d2, 2 nM […] antibody in TR-FRET Detection Buffer (Invitrogen) was then added. After 60 min at room temperature the plate was read on Envision plate reader using Ex: 340 nm, Em: 615 nm and […]. The normalized 665/615 Signal ratio versus log compound concentration was analyzed by XLFIT to yield IC50 values.

[2] = target: T2, GSK3b (GST-full length GSK3b) (Homo sapiens, UniProt P49841); assay: GSK3b TR-FRET kinase inhibition assay; format: biochemical
T2 construct: GST-full length GSK3b: [SignalChem G08-9G]; purchased SignalChem G08-9G
Method: as §1

[3] = 1 mM ATP, Table 5, read-out: GSK3α TR-FRET 1 mM ATP Average IC50
[4] = 1 mM ATP, Table 5, read-out: GSK3β TR-FRET 1 mM ATP Average IC50
[5] = 1 mM ATP, Table 3, read-out: GSK3a TR-FRET 1 mM ATP Average IC50
[6] = 1 mM ATP, Table 3, read-out: GSK3b TR-FRET 1 mM ATP Average IC50
[7] = 4 μM ATP, read-out: GSK3α TR-FRET 4 μM ATP GMean IC50
[8] = 2 μM ATP, read-out: GSK3β TR-FRET 2 μM ATP GMean IC50

T1 sequence (P49840 whole entry): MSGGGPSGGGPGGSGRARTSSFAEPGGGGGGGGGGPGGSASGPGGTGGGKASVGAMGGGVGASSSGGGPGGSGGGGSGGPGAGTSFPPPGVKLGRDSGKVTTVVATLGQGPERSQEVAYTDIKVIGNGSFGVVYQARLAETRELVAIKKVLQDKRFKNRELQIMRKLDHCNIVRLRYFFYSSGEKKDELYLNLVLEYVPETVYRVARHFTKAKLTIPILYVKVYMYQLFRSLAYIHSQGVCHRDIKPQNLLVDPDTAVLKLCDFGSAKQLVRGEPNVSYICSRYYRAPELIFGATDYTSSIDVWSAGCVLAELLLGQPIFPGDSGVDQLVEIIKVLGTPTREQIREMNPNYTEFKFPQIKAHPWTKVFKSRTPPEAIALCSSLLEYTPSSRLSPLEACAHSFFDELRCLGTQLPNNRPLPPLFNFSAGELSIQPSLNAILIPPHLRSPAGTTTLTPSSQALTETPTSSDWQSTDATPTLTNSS
T2 sequence (P49841 whole entry): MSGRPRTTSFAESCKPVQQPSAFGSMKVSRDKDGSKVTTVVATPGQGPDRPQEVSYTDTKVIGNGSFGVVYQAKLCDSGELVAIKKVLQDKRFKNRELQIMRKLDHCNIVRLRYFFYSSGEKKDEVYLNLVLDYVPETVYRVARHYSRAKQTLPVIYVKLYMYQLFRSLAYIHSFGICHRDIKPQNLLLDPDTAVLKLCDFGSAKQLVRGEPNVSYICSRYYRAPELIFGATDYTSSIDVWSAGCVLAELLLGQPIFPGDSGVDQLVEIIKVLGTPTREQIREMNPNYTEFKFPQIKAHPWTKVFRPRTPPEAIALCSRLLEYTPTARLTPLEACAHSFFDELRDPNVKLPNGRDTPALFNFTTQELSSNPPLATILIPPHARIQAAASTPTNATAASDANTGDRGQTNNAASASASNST

pIC50 [1, 3]	pIC50 [2, 4]	pIC50 [1, 5]	pIC50 [2, 6]	SMILES	also measured
4.70 to 5.30	4.70 to 5.30			C=C(C)c1cnc2c(c1C#N)C(C)(c1ccccc1)C1=C(CC(C)(C)CC1=O)N2 (single isomer, unassigned) [620B]	
4.70 to 5.30	4.70 to 5.30			C=C(C)c1cnc2c(c1C#N)C(C)(c1ccccc1)C1=C(CC(C)(C)CC1=O)N2 (single isomer, unassigned) [620A]	
		6.00 to 7.00	6.00 to 7.00	CC1(C)CC(=O)C2=C(C1)Nc1ncc(F)c(F)c1C2(C)c1ccccc1 (single isomer, unassigned) [Compound 116B]	
				CCC1(c2ccccc2)C2=C(CC(C)(C)CC2=O)Nc2ncccc21 (racemic) [Compound 102]	pIC50 [1, 7]: 6.00 to 7.00; pIC50 [2, 8]: 6.00 to 7.00
		6.00 to 7.00	6.00 to 7.00	CC1(C)CC(=O)C2=C(C1)Nc1ncc(F)c(C(F)(F)F)c1C2(C)c1cccc(S(C)(=O)=O)c1 (single isomer, unassigned) [Compound 166A]	
				CCC1(c2cccc(-c3ccncc3C)c2)C2=C(CC(C)(C)CC2=O)Nc2ncccc21 (single isomer, unassigned) [Compound 1020A]	pIC50 [1, 7]: 5.30 to 6.00; pIC50 [2, 8]: < 5.30
		4.70 to 5.30	4.70 to 5.30	CC1(C)CC(=O)C2=C(C1)Nc1ncc(C(F)(F)F)cc1C2(C)c1cccc(S(C)(=O)=O)c1 (single isomer, unassigned) [Compound 157B]	
6.00 to 7.00	6.00 to 7.00			CN1C(=O)C2=C(CC1(C)C)Nc1ncc(C(F)F)c(C#N)c1C2(C)c1ccccc1 (single isomer, unassigned) [632B]	
		6.00 to 7.00	6.00 to 7.00	COc1cncc(CC(C)(C)C)c1-c1cccc(C2(C)C3=C(CC(C)(C)CC3=O)Nc3ncccc32)c1 (single isomer, unassigned) [Compound 172A]	
5.30 to 6.00	5.30 to 6.00			C=Cc1cnc2c(c1C#N)C(C)(c1ccccc1)C1=C(CC(C)(C)CC1=O)N2 (single isomer, unassigned) [607A]	
		5.30 to 6.00	5.30 to 6.00	CC(C)(C)Cc1cncc(F)c1-c1cccc(C2(C)C3=C(CC(C)(C)CC3=O)Nc3ncc(F)cc32)c1 (single isomer, unassigned) [Compound 173A]	
		5.30 to 6.00	6.00 to 7.00	CC1(C)CC(=O)C2=C(C1)Nc1ncc(C(F)(F)F)cc1C2(C)c1cccc(S(C)(=O)=O)c1 (single isomer, unassigned) [Compound 157A]	
≥ 7.00	≥ 7.00			CC1(C)CC(=O)C2=C(C1)Nc1ncc(F)cc1C2(C)c1cccc(-c2ccncc2CC(F)(F)F)c1 (single isomer, unassigned) [653B]	
4.70 to 5.30	5.30 to 6.00			Cn1ncc2c3c(ncc21)NC1=C(C(=O)CC(C)(C)C1)C3(C)c1cccc(S(C)(=O)=O)c1 (single isomer, unassigned) [649A]	
		4.70 to 5.30	4.70 to 5.30	Cc1c(F)cnc2c1C(C)(c1cccc(S(C)(=O)=O)c1)C1=C(CC(C)(C)CC1=O)N2 (single isomer, unassigned) [Compound 144B]	
		5.30 to 6.00	5.30 to 6.00	CC1(C)CC(=O)C2=C(C1)Nc1ncc3c(c1C2(C)c1ccccc1)CCC3 (single isomer, unassigned) [Compound 118B]	
		4.70 to 5.30	5.30 to 6.00	CC1(C)CC(=O)C2=C(C1)Nc1ncc(C(F)(F)F)c(Cl)c1C2(C)c1ccccc1 (single isomer, unassigned) [Compound 141A]	
≥ 7.00	≥ 7.00			CC1(C)CC2=C(C(=O)N1)C(C)(c1ccccc1)c1c(ncc(F)c1C#N)N2 (single isomer, unassigned) [604B]	
				CCC1(c2ccccc2)C2=C(CC3(CCC3)CC2=O)Nc2ncccc21 (single isomer, unassigned) [110 B]	pIC50 [1, 7]: < 5.30; pIC50 [2, 8]: < 5.30
4.70 to 5.30	5.30 to 6.00			CC1(C)CC(=O)C2=C(Nc3ncc(C(F)F)c(C#N)c3[C@]2(C)c2ccccc2)[C@H]1F (single isomer, unassigned) [Compound 633A]	
				CCC1(c2cccc(C(C)C)c2)C2=C(CC(C)(C)CC2=O)Nc2ncccc21 (single isomer, unassigned) [Compound 1011A]	pIC50 [1, 7]: < 5.30; pIC50 [2, 8]: < 5.30
		4.70 to 5.30	4.70 to 5.30	COc1cncc(F)c1-c1cccc(C2(C)C3=C(CC(C)(C)CC3=O)Nc3ncc(C)cc32)c1 (single isomer, unassigned) [Compound 155B]	

pIC50 [1, 3]	pIC50 [2, 4]	pIC50 [1, 5]	pIC50 [2, 6]	SMILES	also measured
		4.70 to 5.30	4.70 to 5.30	CC1(C)CC(=O)C2=C(C1)Nc1ncc(F)c(C#N)c1C2(C)c1cccc(S(C)(=O)=O)c1 (single isomer, unassigned) [Compound 148B]	
5.30 to 6.00	5.30 to 6.00			CCc1cnc2c(c1C#N)C(C)(c1ccccc1)C1=C(CC(C)(C)CC1=O)N2 (single isomer, unassigned) [608A]	
				CCC1(c2cccc(-c3cnn(C)c3)c2)C2=C(CC(C)(C)CC2=O)Nc2ncccc21 (single isomer, unassigned) [Compound 1018A]	pIC50 [1, 7]: < 5.30; pIC50 [2, 8]: < 5.30
4.70 to 5.30	5.30 to 6.00			CC1(C)CC(=O)C2=C(C1)Nc1ncc(C(F)(F)F)c(C3CC3)c1C2(C)c1ccccc1 (single isomer, unassigned) [642A]	
		5.30 to 6.00	6.00 to 7.00	CC(C)n1cncc1-c1cccc(C2(C)C3=C(CC(C)(C)CC3=O)Nc3ncc(C(F)(F)F)cc32)c1 (single isomer, unassigned) [Compound 171B]	
4.70 to 5.30	4.70 to 5.30			CC1(C)CC(=O)C2=C(C1)Nc1ncc(C3CC3)c(C#N)c1C2(C)c1ccccc1 (single isomer, unassigned) [619A]	
				CCC1(c2ccccc2)C2=C(CC(C)(C)NC2=O)Nc2ncc(F)cc21 (single isomer, unassigned) [Compound 1007A]	pIC50 [1, 7]: < 5.30; pIC50 [2, 8]: < 5.30
				CCC1(c2cccc(C(F)(F)F)c2)C2=C(CC(C)(C)CC2=O)Nc2ncccc21 (single isomer, unassigned) [Compound 1014B]	pIC50 [1, 7]: ≥ 7.00; pIC50 [2, 8]: 6.00 to 7.00
4.70 to 5.30	4.70 to 5.30			CC1(C)CC(=O)C2=C(C1)Nc1ncc(C(F)(F)F)c(C3CC3)c1C2(C)c1ccccc1 (single isomer, unassigned) [642B]	
6.00 to 7.00	6.00 to 7.00			Cc1c(C2(C)C3=C(CC(C)(C)CC3=O)Nc3ncc(F)cc32)cccc1S(C)(=O)=O (single isomer, unassigned) [643A]	
5.30 to 6.00	6.00 to 7.00			CN1C(=O)C2=C(CC1(C)C)Nc1ncc(C(F)F)c(C#N)c1C2(C)c1ccccc1 (single isomer, unassigned) [632A]	
		4.70 to 5.30	4.70 to 5.30	CC1(C)CC(=O)C2=C(C1)Nc1ncc(F)c(C(F)(F)F)c1C2(C)c1cccc(S(C)(=O)=O)c1 (single isomer, unassigned) [Compound 166B]	
				CCC1(c2ccccc2)C2=C(CC(C)(C)CC2=O)Nc2ncc(F)cc21 (racemic) [Compound 114]	pIC50 [1, 7]: ≥ 7.00; pIC50 [2, 8]: ≥ 7.00
6.00 to 7.00	6.00 to 7.00			CC1(C)CC(=O)C2=C(C1)Nc1ncc(C(F)F)c(C#N)c1C2(C)c1ccccc1 (single isomer, unassigned) [627A]	
5.30 to 6.00	5.30 to 6.00			Cc1cnc2c(c1C)C(C)(c1ccccc1)C1=C(CC(C)(C)CC1=O)N2 (single isomer, unassigned) [601A]	
		4.70 to 5.30	4.70 to 5.30	CC1(C)CC(=O)C2=C(C1)Nc1nccc(C(F)(F)F)c1C2(C)c1ccccc1 (single isomer, unassigned) [Compound 127B]	
		6.00 to 7.00	6.00 to 7.00	COc1cncc(F)c1-c1cccc(C2(C)C3=C(CC(C)(C)CC3=O)Nc3ncc(C4CC4)cc32)c1 (single isomer, unassigned) [Compound 167A]	
4.70 to 5.30	4.70 to 5.30			CC1(C)CC(=O)C2=C(Nc3ncc(C(F)F)c(C#N)c3[C@]2(C)c2ccccc2)[C@@H]1F (single isomer, unassigned) [Compound 633C]	
		5.30 to 6.00	6.00 to 7.00	CC1(C)CC(=O)C2=C(C1)Nc1ncc(Br)c(F)c1C2(C)c1ccccc1 (single isomer, unassigned) [Compound 140A]	
		4.70 to 5.30	5.30 to 6.00	CC(C)c1cnc2c(c1)C(C)(c1ccccc1)C1=C(CC(C)(C)CC1=O)N2 (single isomer, unassigned) [Compound 119A]	pIC50 ([1]; 100 μM ATP, read-out: GSK3a 100 μM ATP Average IC50): 6.00 to 7.00; pIC50 ([2]; 100 μM ATP, read-out: GSK3b 100 μM ATP Average IC50): 6.00 to 7.00
		6.00 to 7.00	5.30 to 6.00	COc1cncc(F)c1-c1cccc(C2(C)C3=C(CC(C)(C)CC3=O)Nc3ncc(C)cc32)c1 (single isomer, unassigned) [Compound 155A]	
4.70 to 5.30	4.70 to 5.30			CC1(C)CC(=O)C2=C(C1)Nc1ncc(I)c(Br)c1C2(C)c1ccccc1 (single isomer, unassigned) [657A]	
